Paper PMC5333395, “Assessing histone demethylase inhibitors in cells: lessons learned” (Epigenetics & Chromatin, 2017)

What was measured:
[1] = target: T1, KDM4C (Homo sapiens, UniProt Q9H3R0); assay: AlphaScreen in vitro demethylase assay; type: biochemical; details: AlphaScreen; IC50 ± SD (number of replicates); read-out: KDM4C IC50, in vitro
T1 sequence (Q9H3R0 1-1056): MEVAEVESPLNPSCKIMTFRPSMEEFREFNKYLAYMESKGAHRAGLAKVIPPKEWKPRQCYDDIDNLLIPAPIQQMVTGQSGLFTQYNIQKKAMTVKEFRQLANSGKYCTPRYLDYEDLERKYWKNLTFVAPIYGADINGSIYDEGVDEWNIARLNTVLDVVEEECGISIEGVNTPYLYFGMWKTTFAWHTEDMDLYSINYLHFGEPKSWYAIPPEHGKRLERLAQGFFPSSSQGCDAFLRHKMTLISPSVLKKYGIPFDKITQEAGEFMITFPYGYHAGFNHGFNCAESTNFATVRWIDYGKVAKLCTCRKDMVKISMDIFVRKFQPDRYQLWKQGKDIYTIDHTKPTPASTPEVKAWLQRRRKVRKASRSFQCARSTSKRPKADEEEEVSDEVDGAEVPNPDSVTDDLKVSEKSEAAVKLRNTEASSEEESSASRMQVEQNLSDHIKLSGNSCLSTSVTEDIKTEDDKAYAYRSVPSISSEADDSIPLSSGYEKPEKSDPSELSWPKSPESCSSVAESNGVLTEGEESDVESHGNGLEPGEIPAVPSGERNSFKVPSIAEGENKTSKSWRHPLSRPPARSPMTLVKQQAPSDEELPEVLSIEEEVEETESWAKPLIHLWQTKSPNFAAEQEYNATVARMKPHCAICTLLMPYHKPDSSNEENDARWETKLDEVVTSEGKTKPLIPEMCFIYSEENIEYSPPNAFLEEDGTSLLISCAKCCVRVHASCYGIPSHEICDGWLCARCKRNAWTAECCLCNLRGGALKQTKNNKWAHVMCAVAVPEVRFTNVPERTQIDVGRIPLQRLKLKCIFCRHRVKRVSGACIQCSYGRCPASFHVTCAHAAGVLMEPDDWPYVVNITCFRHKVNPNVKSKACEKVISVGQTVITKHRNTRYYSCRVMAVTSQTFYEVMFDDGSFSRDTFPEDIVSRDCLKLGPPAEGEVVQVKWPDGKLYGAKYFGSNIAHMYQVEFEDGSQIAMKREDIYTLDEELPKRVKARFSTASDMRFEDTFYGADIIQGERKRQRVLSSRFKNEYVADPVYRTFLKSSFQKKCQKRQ
Method: (§1) IC50 values were determined as previously described. The following amendments were made to the protocol for carrying out 2-OG competition assays.

[2] = target: T2, KDM5B (Homo sapiens, UniProt Q9UGL1); assay: AlphaScreen in vitro demethylase assay; type: biochemical; details: AlphaScreen; IC50 ± SD (number of replicates); read-out: KDM5B IC50, in vitro
Method: as §1

[3] = target: KDM5A (Homo sapiens, UniProt P29375); assay: High-content immunofluorescence (IF) assay, overexpressed full-length FLAG-tagged KDM in HeLa cells; type: cell-based; details: HeLa cells overexpressing WT KDM5A, H3K4me3 mark, 24 h; for EC50: read-out: KDM5A, in cells, EC50 by IF assay (head: IC50)
Method: On day 0, 7000 cells per well were plated on a 96-well clear bottom CellCarrier plate (PerkinElmer, UK). The next day the cells were transfected with Lipofectamine 3000 (ThermoFisher Scientific, UK) following the manufacturer’s instructions. Briefly, 0.1 µg of plasmid DNA (encoding for the respective demethylase) and 0.15 µL of Lipofectamine 3000 were diluted in separate tubes containing 5 µL OptiMEM. 0.15 µL of P3000 was added to the tube with the DNA. The two solutions were then mixed gently and allowed to incubate for 5 min at room temperature. Next, the DNA-lipid complex was added to the cells for 4 h at 37 °C and 5% CO2. Compound dilutions were made in a 96-well PCR plate (Starlab, UK). The culture medium was supplemented with 0.4% DMSO so that the solvent concentration was maintained throughout. Compounds were serially diluted at a 1:2 or 1:3 dilution ratio. Next, the cell culture plate was removed from the incubator and the medium was gently aspirated and replaced with the fresh medium containing diluted compounds.

[4] = target: T2, KDM5B; assay: as above; type: cell-based; parameters: transiently transfecting the full-length FLAG-tagged demethylase (WT) into cells; expressed in transfected cells; host or cells: HeLa; details: for EC50: HeLa cells overexpressing WT KDM5B, H3K4me3 mark, 24 h, read-out: KDM5B, in cells, EC50 by IF assay (head: IC50); for Effect on H3K4me3 mark in KDM5B IF assay, in words: HeLa cells transfected with KDM5B
Method: HeLa cells (ATCC) were cultured at 37 °C and 5% CO2 in Minimal Essential Media—Eagle (Sigma-Aldrich, UK) supplemented with 10% heat-inactivated foetal calf serum (FCS) (Gibco, UK), and 1% L-glutaMAX (Gibco, UK) in T75 flasks (Sarstedt, UK) and passaged regularly with TrypLE (Life Technologies, UK) before cells reached confluence. On day 0, 7000 cells per well were plated on a 96-well clear bottom CellCarrier plate (PerkinElmer, UK). The next day the cells were transfected with Lipofectamine 3000 (ThermoFisher Scientific, UK) following the manufacturer’s instructions. Briefly, 0.1 µg of plasmid DNA (encoding for the respective demethylase) and 0.15 µL of Lipofectamine 3000 were diluted in separate tubes containing 5 µL OptiMEM. 0.15 µL of P3000 was added to the tube with the DNA. The two solutions were then mixed gently and allowed to incubate for 5 min at room temperature. Next, the DNA-lipid complex was added to the cells for 4 h at 37 °C and 5% CO2.
Compound dilutions were made in a 96-well PCR plate (Starlab, UK). The culture medium was supplemented with 0.4% DMSO so that the solvent concentration was maintained throughout. Compounds were serially diluted at a 1:2 or 1:3 dilution ratio. Next, the cell culture plate was removed from the incubator and the medium was gently aspirated and replaced with the fresh medium containing diluted compounds.
Then cells were rinsed once with PBS and blocked for 30 min at room temperature using 3% v/v foetal calf serum diluted in PBS.

T2 sequence (Q9UGL1 whole entry): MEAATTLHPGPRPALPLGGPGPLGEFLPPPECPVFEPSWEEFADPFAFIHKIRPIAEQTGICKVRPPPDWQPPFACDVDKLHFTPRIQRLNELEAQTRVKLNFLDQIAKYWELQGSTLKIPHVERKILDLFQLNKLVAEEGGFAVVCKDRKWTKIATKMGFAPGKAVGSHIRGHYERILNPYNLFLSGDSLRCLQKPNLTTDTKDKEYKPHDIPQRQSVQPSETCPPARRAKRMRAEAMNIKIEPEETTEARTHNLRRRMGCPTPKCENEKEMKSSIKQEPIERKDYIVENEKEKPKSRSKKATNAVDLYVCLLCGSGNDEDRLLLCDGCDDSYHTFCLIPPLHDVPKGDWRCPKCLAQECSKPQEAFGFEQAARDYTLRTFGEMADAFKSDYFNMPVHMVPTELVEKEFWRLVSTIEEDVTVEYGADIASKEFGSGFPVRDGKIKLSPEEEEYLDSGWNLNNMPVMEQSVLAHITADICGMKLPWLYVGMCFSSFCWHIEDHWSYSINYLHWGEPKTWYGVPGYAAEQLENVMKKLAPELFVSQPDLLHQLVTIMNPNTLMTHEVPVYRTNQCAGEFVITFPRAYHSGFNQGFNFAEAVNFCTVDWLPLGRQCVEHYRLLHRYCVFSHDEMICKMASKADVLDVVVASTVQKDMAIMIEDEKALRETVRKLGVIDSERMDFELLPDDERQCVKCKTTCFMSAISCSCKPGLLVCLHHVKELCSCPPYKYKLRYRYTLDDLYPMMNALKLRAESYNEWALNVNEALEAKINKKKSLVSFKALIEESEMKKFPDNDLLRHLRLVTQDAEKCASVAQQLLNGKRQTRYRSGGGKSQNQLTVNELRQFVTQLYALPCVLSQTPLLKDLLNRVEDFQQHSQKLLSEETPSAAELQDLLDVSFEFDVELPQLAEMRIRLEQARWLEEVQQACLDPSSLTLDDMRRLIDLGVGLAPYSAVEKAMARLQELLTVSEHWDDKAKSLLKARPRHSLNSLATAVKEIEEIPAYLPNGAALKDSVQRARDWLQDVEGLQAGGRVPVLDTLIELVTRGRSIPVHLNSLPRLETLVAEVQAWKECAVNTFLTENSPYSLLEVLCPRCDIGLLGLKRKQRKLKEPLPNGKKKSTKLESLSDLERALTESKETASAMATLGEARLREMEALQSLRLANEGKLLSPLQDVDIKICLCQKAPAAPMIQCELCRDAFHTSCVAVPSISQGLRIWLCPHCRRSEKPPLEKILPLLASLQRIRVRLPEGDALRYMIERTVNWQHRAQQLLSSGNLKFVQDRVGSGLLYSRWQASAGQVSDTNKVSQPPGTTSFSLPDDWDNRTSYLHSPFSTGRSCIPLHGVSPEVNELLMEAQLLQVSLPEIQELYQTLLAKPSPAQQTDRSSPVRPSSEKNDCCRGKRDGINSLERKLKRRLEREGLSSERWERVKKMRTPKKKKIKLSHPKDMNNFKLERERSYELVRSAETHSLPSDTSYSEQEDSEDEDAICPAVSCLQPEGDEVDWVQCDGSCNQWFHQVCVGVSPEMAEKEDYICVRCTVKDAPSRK
Sequence of KDM5A (P29375 whole entry): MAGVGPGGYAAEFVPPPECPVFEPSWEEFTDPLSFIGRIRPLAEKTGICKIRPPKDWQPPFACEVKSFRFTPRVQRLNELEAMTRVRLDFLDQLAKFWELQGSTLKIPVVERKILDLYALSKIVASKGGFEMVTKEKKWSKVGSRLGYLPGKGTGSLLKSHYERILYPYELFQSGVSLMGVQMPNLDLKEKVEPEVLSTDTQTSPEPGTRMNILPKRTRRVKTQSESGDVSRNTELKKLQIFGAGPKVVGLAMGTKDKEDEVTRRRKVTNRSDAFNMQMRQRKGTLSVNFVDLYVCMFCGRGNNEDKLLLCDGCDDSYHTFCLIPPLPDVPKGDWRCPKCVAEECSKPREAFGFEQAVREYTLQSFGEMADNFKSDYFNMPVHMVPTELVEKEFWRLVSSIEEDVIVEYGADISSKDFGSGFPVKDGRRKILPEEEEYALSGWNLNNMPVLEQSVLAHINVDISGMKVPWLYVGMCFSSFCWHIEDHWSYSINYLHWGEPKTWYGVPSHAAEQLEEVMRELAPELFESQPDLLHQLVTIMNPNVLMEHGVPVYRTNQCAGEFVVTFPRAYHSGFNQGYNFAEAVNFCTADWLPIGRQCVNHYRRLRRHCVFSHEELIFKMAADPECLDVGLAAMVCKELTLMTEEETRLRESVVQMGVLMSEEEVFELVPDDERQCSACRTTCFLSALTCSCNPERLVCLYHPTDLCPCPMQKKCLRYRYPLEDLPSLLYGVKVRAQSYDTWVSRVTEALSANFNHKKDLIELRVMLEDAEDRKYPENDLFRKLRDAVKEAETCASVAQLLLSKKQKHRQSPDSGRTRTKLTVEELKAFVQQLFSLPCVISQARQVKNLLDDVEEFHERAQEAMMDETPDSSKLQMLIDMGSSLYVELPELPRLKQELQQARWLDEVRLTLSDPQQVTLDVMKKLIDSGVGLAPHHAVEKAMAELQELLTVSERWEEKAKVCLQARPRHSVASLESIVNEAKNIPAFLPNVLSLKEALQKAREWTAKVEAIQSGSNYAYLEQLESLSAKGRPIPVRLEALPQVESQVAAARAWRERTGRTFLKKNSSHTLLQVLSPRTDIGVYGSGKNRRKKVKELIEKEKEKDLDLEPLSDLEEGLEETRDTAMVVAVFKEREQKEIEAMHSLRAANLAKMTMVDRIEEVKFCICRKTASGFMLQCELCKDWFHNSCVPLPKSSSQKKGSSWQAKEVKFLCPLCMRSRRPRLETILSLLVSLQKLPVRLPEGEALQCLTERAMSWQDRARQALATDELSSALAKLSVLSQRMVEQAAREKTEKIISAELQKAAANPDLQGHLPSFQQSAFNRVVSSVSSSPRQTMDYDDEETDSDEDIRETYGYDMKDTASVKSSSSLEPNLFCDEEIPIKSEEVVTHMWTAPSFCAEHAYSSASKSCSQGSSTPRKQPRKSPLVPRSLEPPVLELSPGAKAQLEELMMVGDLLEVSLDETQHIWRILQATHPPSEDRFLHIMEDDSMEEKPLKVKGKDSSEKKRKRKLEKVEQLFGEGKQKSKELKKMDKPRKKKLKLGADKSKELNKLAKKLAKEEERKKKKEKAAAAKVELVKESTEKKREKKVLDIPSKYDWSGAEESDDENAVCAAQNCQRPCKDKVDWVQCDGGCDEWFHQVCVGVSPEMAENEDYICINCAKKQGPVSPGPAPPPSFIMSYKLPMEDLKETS

| Molecule | IC50 [1] [nM] | IC50 [2] [nM] | EC50 [3] [nM] | EC50 [4] [nM] | Effect on H3K4me3 mark in KDM5B IF assay, in words [4] | KDM5A, in cells, EC50 by IF assay (head: IC50) [3] |
| --- | --- | --- | --- | --- | --- | --- |
| CCOC(=O)c1ccnc(CNCC(=O)N(CC)CCN(C)C)c1 [KDOAM-21] | 2800 ± 1300 | 94 ± 65 | 4800 | 700 | – | – |
| CPI-455 | 11000 ± 2300 | 260 ± 64 | – | 60000 | dose-dependent increase of the H3K4me3 mark | – |
| CCN(CCN(C)C)C(=O)CNCc1cncc(C(N)=O)c1 [KDOAM-32] | – | > 10000 | > 100000 | > 100000 | – | – |
| CCN(CCN(C)C)C(=O)CNCc1cc(C(=O)O)ccn1 [KDOAM-20] | 190 ± 81 | 7 ± 3 | – | 20000 | – | little inhibition |
| Clc1ccc(N/N=C(\c2ccccc2)c2ccccn2)nc1 [JIB-04 E] | – | – | – | 3000 | dose-dependent increase of H3K4me3 | – |
| O=c1[nH]cnc2c(-n3cc(CCN4CCC(c5cccc(Cl)c5)CC4)cn3)cccc12 [CCT366293, 8-(4-(2-(4-(3-Chlorophenyl)piperidin-1-yl)ethyl)-1H-pyrazol-1-yl)quinazolin-4(3H)-one] | – | > 10000 | – | > 100000 | no effect | – |
